In patent publication US11814444B2, “Cyclic polypeptides for PCSK9 inhibition” (Ra Pharmaceuticals, Inc., priority 2018, dated 2023):
Numbered stars: 1 amine (or outer) side, 2 acyl side, 3 side chain; on linkers, the order of the positions; unused ones are H or OH. Bridge positions count the residues as written; N and C are the ends. Square brackets hold non-standard residues; d marks the D form. Peptide text beside a SMILES is read from it. Trp(7-aza) = N[C@@H](Cc1c[nH]c2ncccc12)C(=O)O; X8 = O=C([C@H](Cc1ccc2[nH]ncc2c1)N[*:1])[*:2]; Gly(piperidin-4-yl) = N[C@H](C(=O)O)C1CCNCC1; NMePhe(4-F) = CN[C@@H](Cc1ccc(F)cc1)C(=O)O; dBip = N[C@H](Cc1ccc(-c2ccccc2)cc1)C(=O)O; X7 = O=C(CCSCc1cccc(CSCCN[*:1])c1)[*:2]; 1Nal = N[C@@H](Cc1cccc2ccccc12)C(=O)O; 2Nal = N[C@@H](Cc1ccc2ccccc2c1)C(=O)O; mXylylene = c1cc(C[*:1])cc(C[*:2])c1; Bta = N[C@@H](Cc1csc2ccccc12)C(=O)O; Gly(octyl) = CCCCCCCC[C@H](N)C(=O)O; Ala(cPr) = N[C@@H](CC1CC1)C(=O)O; 2Pal = N[C@@H](Cc1ccccn1)C(=O)O; 3Thi = N[C@@H](Cc1ccsc1)C(=O)O; Chg = N[C@H](C(=O)O)C1CCCCC1; Tle = CC(C)(C)[C@H](N)C(=O)O; αMeV = CC(C)[C@](C)(N)C(=O)O; NMeV = CN[C@H](C(=O)O)C(C)C; Iva = CC[C@](C)(N)C(=O)O; Nva = CCC[C@H](N)C(=O)O; Aib = CC(C)(N)C(=O)O; Mpa = O=C(O)CCS

What follows are compounds tested against human PCSK9 / human LDLR EGFa domain interaction (Homo sapiens, UniProt Q8NBP7) (assay: TR-FRET assay of inhibition of the PCSK9-LDLR protein-protein interaction). Settings: 20 nM avitag-biotinylated human PCSK9, 20 nM his-tagged human LDLR EGFa domain, 2 hours, room temperature.
Sequence of human PCSK9 / human LDLR EGFa domain interaction (Q8NBP7 153-692): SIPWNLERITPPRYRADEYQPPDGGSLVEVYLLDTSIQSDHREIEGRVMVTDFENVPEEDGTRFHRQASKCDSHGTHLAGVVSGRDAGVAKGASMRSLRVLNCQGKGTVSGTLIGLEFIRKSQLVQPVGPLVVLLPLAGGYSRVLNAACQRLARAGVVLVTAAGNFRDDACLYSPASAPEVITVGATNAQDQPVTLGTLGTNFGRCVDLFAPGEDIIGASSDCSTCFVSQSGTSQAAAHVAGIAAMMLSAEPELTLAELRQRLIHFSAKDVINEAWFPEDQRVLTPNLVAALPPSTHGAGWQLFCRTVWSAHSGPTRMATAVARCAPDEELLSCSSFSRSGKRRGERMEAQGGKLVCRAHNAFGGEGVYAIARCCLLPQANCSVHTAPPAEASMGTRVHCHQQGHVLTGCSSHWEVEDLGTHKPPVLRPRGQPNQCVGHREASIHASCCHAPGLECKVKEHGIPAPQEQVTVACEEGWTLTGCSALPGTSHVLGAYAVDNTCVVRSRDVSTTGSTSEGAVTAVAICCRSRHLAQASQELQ
Sequence of human PCSK9 / human LDLR EGFa domain interaction (Q8NBP7 31-152 partner limits assumed): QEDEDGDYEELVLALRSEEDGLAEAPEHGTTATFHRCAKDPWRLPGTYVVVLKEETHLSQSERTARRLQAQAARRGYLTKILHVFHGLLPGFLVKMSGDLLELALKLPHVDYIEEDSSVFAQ
Type: binding
Description: A time-resolved fluorescence resonance energy (TR-FRET) assay was used to measure inhibition of the PCSK9-LDLR protein-protein interaction. Briefly, 20 nM avitag-biotinylated human PCSK9 was incubated with 20 nM his-tagged human LDLR EGFa domain in the presence of 5 nM LANCE Ulight Streptavidin (Perkin Elmer) and 5 nM europium-Anti-6×His (Perkin Elmer) for 2 hours covered at room temperature in buffer containing 50 mM HEPES, 150 mM NaCl, 5 mM CaCl2), 0.01% BSA and 0.01% Surfactant P20. Compounds were tested in dose-response and concentrations giving half-maximal inhibition calculated using a 4-parameter fit equation.

`CCC[C@@H]1NC(=O)[C@H](Cc2c[nH]c3ncccc23)NC(=O)[C@H]([C@@H](C)O)NC(=O)[C@H](Cc2c[nH]cn2)NC(=O)[C@H](Cc2ccc(O)cc2)NC(=O)[C@H](C(C)(C)C)NC(=O)CCSCc2cccc(c2)CSC[C@@H](C(N)=O)NC(=O)[C@H]([C@@H](C)O)NC(=O)[C@H](C2CCNCC2)NC(=O)[C@H](Cc2ccc(O)cc2)NC(=O)[C@H](CCC(=O)O)NC1=O` [Compound 331] ([Mpa][Tle]YHT[Trp(7-aza)][Nva]EY[Gly(piperidin-4-yl)]TC-NH2; linker 1-12 via mXylylene) and `CCC[C@@H]1NC(=O)[C@H](Cc2c[nH]c3ncccc23)NC(=O)[C@H]([C@@H](C)O)NC(=O)[C@H](Cc2ccsc2)NC(=O)[C@H](Cc2ccc(O)cc2)NC(=O)[C@H](C(C)(C)C)NC(=O)CCSCc2cccc(c2)CSC[C@@H](C(N)=O)NC(=O)[C@H]([C@@H](C)O)NC(=O)[C@H](CCC)NC(=O)[C@H](Cc2ccc(O)cc2)NC(=O)[C@H](CCC(=O)O)NC1=O` [Compound 119] ([Mpa][Tle]Y[3Thi]T[Trp(7-aza)][Nva]EY[Nva]TC-NH2; linker 1-12 via mXylylene) fall in the same range of IC50: 1 to 21 µM for the first, 1 to 21 µM for the second.

First: CC(C)[C@H]1C(=O)N[C@@H](Cc2ccccc2)C(=O)N2CCC[C@H]2C(=O)N[C@@H]([C@@H](C)O)C(=O)N[C@@H](Cc2cccc3ccccc23)C(=O)NC(C)(C)C(=O)N[C@@H](C)C(=O)N[C@@H](Cc2ccccc2)C(=O)N[C@@](C)(C(C)C)C(=O)N[C@@H](C)C(=O)NCCSCc2cccc(c2)CSCCC(=O)N1C [Compound 143] (cyclo([1Nal][Aib]AF[αMeV]A[X7][NMeV]FPT))
Second: CC[C@]1(C)NC(=O)[C@H](Cc2c[nH]c3ncccc23)NC(=O)[C@H]([C@@H](C)O)NC(=O)[C@@H]2CCCN2C(=O)[C@H](Cc2ccc(O)cc2)NC(=O)[C@H](C(C)(C)C)NC(=O)[C@@H](NC(C)=O)CSCc2cccc(c2)CSC[C@H](C(N)=O)NC(=O)[C@H]([C@@H](C)O)NC(=O)[C@](C)(C(C)C)NC(=O)[C@H](Cc2ccc(O)cc2)NC(=O)[C@H](C)NC1=O [Compound 193] (Ac-C[Tle]YPT[Trp(7-aza)][Iva]AY[αMeV]T[dC]-NH2; linker 1-12 via mXylylene)
The IC50 of the first is higher: 1 to 21 µM for the first, 0.001 to 0.1 µM for the second. The second is the more potent here.

First: CCC[C@@H]1NC(=O)[C@H](Cc2c[nH]c3ncccc23)NC(=O)[C@H]([C@@H](C)O)NC(=O)[C@@H]2CCCN2C(=O)[C@H](Cc2ccc(O)cc2)NC(=O)[C@H](C(C)(C)C)NC(=O)CCSCc2cccc(c2)CSC[C@@H](C(N)=O)NC(=O)[C@H](CCC(=O)O)NC(=O)[C@H](C2CCCCC2)NC(=O)[C@H](Cc2ccc(O)cc2)NC(=O)[C@H](C)NC1=O [Compound 171] ([Mpa][Tle]YPT[Trp(7-aza)][Nva]AY[Chg]EC-NH2; linker 1-12 via mXylylene)
Second: CCCCCCCC[C@@H]1NC(=O)[C@H](Cc2c[nH]c3ncccc23)NC(=O)[C@H]([C@@H](C)O)NC(=O)[C@@H]2CCCN2C(=O)[C@H](Cc2ccc(O)cc2)NC(=O)[C@H](C(C)(C)C)NC(=O)CCSCc2cccc(c2)CSC[C@@H](C(N)=O)NC(=O)[C@H]([C@@H](C)O)NC(=O)[C@H](CCC)NC(=O)[C@H](Cc2ccc(O)cc2)NC(=O)[C@H](C)NC1=O [Compound 169] ([Mpa][Tle]YPT[Trp(7-aza)][Gly(octyl)]AY[Nva]TC-NH2; linker 1-12 via mXylylene)
The IC50 of the first is higher: 1 to 21 µM for the first, 0.1 to 1 µM for the second.

Compared with `CCC[C@@H]1NC(=O)[C@H](Cc2ccc3ccccc3c2)NC(=O)[C@H]([C@@H](C)O)NC(=O)[C@H](Cc2c[nH]cn2)NC(=O)[C@H](Cc2ccc(O)cc2)NC(=O)[C@H](C(C)(C)C)NC(=O)CCSCc2cccc(c2)CSC[C@@H](C(N)=O)NC(=O)[C@H]([C@@H](C)O)NC(=O)[C@H](CCC)NC(=O)[C@H](Cc2ccc(O)cc2)NC(=O)[C@H](CCC(=O)O)NC1=O` [Compound 276] ([Mpa][Tle]YHT[2Nal][Nva]EY[Nva]TC-NH2; linker 1-12 via mXylylene), `CCC[C@@H]1NC(=O)[C@H](Cc2csc3ccccc23)NC(=O)[C@H]([C@@H](C)O)NC(=O)[C@H](Cc2c[nH]cn2)NC(=O)[C@H](Cc2ccc(O)cc2)NC(=O)[C@H](C(C)(C)C)NC(=O)CCSCc2cccc(c2)CSC[C@@H](C(N)=O)NC(=O)[C@H]([C@@H](C)O)NC(=O)[C@H](CCC)NC(=O)[C@H](Cc2ccc(O)cc2)NC(=O)[C@H](CCC(=O)O)NC1=O` [Compound 275] ([Mpa][Tle]YHT[Bta][Nva]EY[Nva]TC-NH2; linker 1-12 via mXylylene) is lower in IC50: 1 to 21 µM for the first, 0.1 to 1 µM for the second. The second is the more potent here.

Compound `CCC[C@@H]1NC(=O)[C@H](Cc2c[nH]c3ncccc23)NC(=O)[C@H]([C@@H](C)O)NC(=O)[C@H](Cc2c[nH]cn2)NC(=O)[C@H](Cc2ccc(O)cc2)NC(=O)[C@H](C(C)(C)C)NC(=O)CCSCc2cccc(c2)CSC[C@@H](C(N)=O)NC(=O)[C@H]([C@@H](C)O)NC(=O)[C@H](CCC)NC(=O)[C@@H](Cc2ccc(-c3ccccc3)cc2)NC(=O)[C@H](CCC(=O)O)NC1=O` [Compound 325] ([Mpa][Tle]YHT[Trp(7-aza)][Nva]E[dBip][Nva]TC-NH2; linker 1-12 via mXylylene) has an IC50 of 0.1 to 1 µM.

Each compound was assayed against PCSK9 (Homo sapiens, UniProt Q8NBP7) (assay: PCSK9 Alexa FRET Standard assay (displacement of AlexaFluor647 tagged cyclic peptide Reagent A)). Settings: 0.5 nM PCSK9, 20 nM AF cyclic peptide Reagent A.
Sequence of PCSK9 (Q8NBP7 153-692): as the sequence (Q8NBP7 153-692) above
Type: binding
Description: A solution containing 1 nM biotinylated PCSK9+2.5 nM Lance Streptavidin Europium (Strep-Eu) was made in 50 mM HEPES pH 7.4, 0.15 M NaCl, 5 mM CaCl2), 0.01% BSA, and 0.01% Surfactant P20. A separate solution containing 40 nM of the AlexaFluor tagged cyclic peptide was made in the same buffer system. An Echo was used to transfer 0.750 ul of compound to an assay plate followed by the addition of 15 ul of PCSK9+Stept-Eu and 15 ul of AF peptide. The final assay volume was 30.750 ul containing 0.5 nM PCSK9, 1.25 nM Strep-Eu, and 20 nM AF cyclic peptide. The reaction was incubated at room temperature for at least two hours prior to fluorescence measurements using an Envision Multilabel Reader. IC50 values were determined by fitting data to a sigmoidal dose-response curve using nonlinear regression. Ki was then calculated from the IC50 and the KD of AF cyclic peptide. Counts (B-counts) of the europium-labeled PCSK9 were followed to observe if compounds were […]. A fall off of the B-counts likely indicated a false positive of inhibition. Data from this procedure was reported as “A=‘numerical value’ (nanomolar)”

`CCC[C@@H]1NC(=O)[C@H](Cc2c[nH]c3ncccc23)NC(=O)[C@H]([C@@H](C)O)NC(=O)[C@H](Cc2c[nH]cn2)NC(=O)[C@H](Cc2ccc(O)cc2)NC(=O)[C@H](C(C)(C)C)NC(=O)CCSCc2cccc(c2)CSC[C@@H](C(N)=O)NC(=O)[C@H]([C@@H](C)O)NC(=O)[C@H](CCC)NC(=O)[C@H](Cc2ccc(F)cc2)N(C)C(=O)[C@H](CCC(=O)O)NC1=O` [Compound 267] ([Mpa][Tle]YHT[Trp(7-aza)][Nva]E[NMePhe(4-F)][Nva]TC-NH2; linker 1-12 via mXylylene) and `CCC[C@@H]1NC(=O)[C@H](Cc2c[nH]c3ncccc23)NC(=O)[C@H]([C@@H](C)O)NC(=O)[C@H](Cc2c[nH]cn2)NC(=O)[C@H](Cc2ccc(O)cc2)NC(=O)[C@H](C(C)(C)C)NC(=O)CCSCc2cccc(c2)CSC[C@@H](C(N)=O)NC(=O)[C@H]([C@@H](C)O)NC(=O)[C@H](CCC)NC(=O)[C@H](Cc2ccc3[nH]ncc3c2)NC(=O)[C@H](CCC(=O)O)NC1=O` [Compound 257] ([Mpa][Tle]YHT[Trp(7-aza)][Nva]E[X8][Nva]TC-NH2; linker 1-12 via mXylylene) fall in the same range of IC50: 50 to 100 µM for the first, 50 to 100 µM for the second.

First: CCC[C@@H]1NC(=O)[C@H](Cc2c[nH]c3ncccc23)NC(=O)[C@H]([C@@H](C)O)NC(=O)[C@H](Cc2c[nH]cn2)NC(=O)[C@H](Cc2ccc(O)cc2)NC(=O)[C@H](C(C)(C)C)NC(=O)CCSCc2cccc(c2)CSC[C@@H](C(N)=O)NC(=O)[C@H]([C@@H](C)O)NC(=O)[C@H](CC2CC2)NC(=O)[C@H](Cc2ccc(O)cc2)NC(=O)[C@H](CCC(=O)O)NC1=O [Compound 262] ([Mpa][Tle]YHT[Trp(7-aza)][Nva]EY[Ala(cPr)]TC-NH2; linker 1-12 via mXylylene)
Second: CCC[C@@H]1NC(=O)[C@H](Cc2c[nH]c3ncccc23)NC(=O)[C@H]([C@@H](C)O)NC(=O)[C@H](Cc2ccccn2)NC(=O)[C@H](Cc2ccc(O)cc2)NC(=O)[C@H](C(C)(C)C)NC(=O)CCSCc2cccc(c2)CSC[C@@H](C(N)=O)NC(=O)[C@H]([C@@H](C)O)NC(=O)[C@H](CCC)NC(=O)[C@H](Cc2ccc(O)cc2)NC(=O)[C@H](CCC(=O)O)NC1=O [Compound 114] ([Mpa][Tle]Y[2Pal]T[Trp(7-aza)][Nva]EY[Nva]TC-NH2; linker 1-12 via mXylylene)
The IC50 of the first is lower: 1 to 21 µM for the first, 21 to 50 µM for the second.

Compared with `CC(=O)N[C@H]1CSCc2cccc(c2)CSC[C@H](C(N)=O)NC(=O)[C@H]([C@@H](C)O)NC(=O)[C@H](C)NC(=O)[C@H](Cc2ccc(O)cc2)NC(=O)[C@H](CCC(=O)O)NC(=O)[C@H](C)NC(=O)[C@H](Cc2c[nH]c3ncccc23)NC(=O)[C@H]([C@@H](C)O)NC(=O)[C@H](Cc2c[nH]cn2)NC(=O)[C@H](Cc2ccc(O)cc2)NC(=O)[C@H](C(C)(C)C)NC1=O` [Compound 245] (Ac-C[Tle]YHT[Trp(7-aza)]AEYAT[dC]-NH2; linker 1-12 via mXylylene), `CC(=O)N[C@H]1CSCc2cccc(c2)CSC[C@@H](C(N)=O)NC(=O)[C@H]([C@@H](C)O)NC(=O)[C@H](C)NC(=O)[C@H](Cc2ccc(O)cc2)NC(=O)[C@H](CCC(=O)O)NC(=O)[C@H](C)NC(=O)[C@H](Cc2c[nH]c3ncccc23)NC(=O)[C@H]([C@@H](C)O)NC(=O)[C@H](Cc2c[nH]cn2)NC(=O)[C@H](Cc2ccc(O)cc2)NC(=O)[C@H](C(C)(C)C)NC1=O` [Compound 242] (Ac-C[Tle]YHT[Trp(7-aza)]AEYATC-NH2; linker 1-12 via mXylylene) is lower in IC50: 50 to 100 µM for the first, 1 to 21 µM for the second.

Work on `CCC[C@H](NC(C)=O)C(=O)N[C@H]1CSCc2cccc(c2)CSC[C@@H](C(N)=O)NC(=O)[C@H]([C@@H](C)O)NC(=O)[C@H](CCC)NC(=O)[C@H](Cc2c[nH]c3ncccc23)NC(=O)[C@H](CCC(=O)O)NC(=O)[C@H](CCC)NC(=O)[C@H](Cc2c[nH]c3ncccc23)NC(=O)[C@H]([C@@H](C)O)NC(=O)[C@H](Cc2c[nH]cn2)NC(=O)[C@H](Cc2ccc(O)cc2)NC(=O)[C@H](C(C)(C)C)NC1=O` [Compound 243] (Ac-[Nva]C[Tle]YHT[Trp(7-aza)][Nva]E[Trp(7-aza)][Nva]TC-NH2; linker 2-13 via mXylylene) yielded an IC50 of 50 to 100 µM.
